From patent publication US20150087598A1, “TREATING MUC1-EXPRESSING CANCERS WITH HELICASE INHIBITORS” (DANA-FARBER CANCER INSTITUTE, INC., priority 2012, published 2015)
Where two headings read alike, the source gives them in different places.

How the values were obtained:
CYP2C9 = CYP2C9 (Homo sapiens, UniProt P11712); conditions: background statement; cited from earlier work
MUC1-C [1] = assay: Immunoblot of MUC1-C in growth factor-stimulated MCF-10A cells; assay type: cell-based, Human; conditions: for HRG-induced increase in MUC1-C abundance: MCF-10A cells + HRG, indicated concentrations; for EGF- and HRG-induced MUC1-C translation: growth factor stimulation (summary in discussion)
Method: (§1) Human MCF-10A mammary epithelial cells were grown in mammary epithelial growth medium (MEGM, Lonza). Human MCF-7 and MDA-MB-468 breast cancer cells were cultured in Dulbecco's modified Eagle's medium with 10% heat-inactivated fetal bovine serum (FBS), 100 U/ml penicillin, 100 μg/ml streptomycin and 2 mM L-glutamine. Human BT-549 cells were maintained in RPMI-1640 medium (ATCC) with 10% FBS and 0.023 IU/ml insulin. Cells were treated with EGF (Sigma), heregulin beta 1 (HRG; Neomarkers), cycloheximide (CHX, Calbiochem), U0126 (Calbiochem), LY294002 (Caymam Chemical Company), BEZ-235 (Selleckchem) and rapamycin Cell Signaling Technology). In certain experiments, MCF-10A cells were serum-starved overnight, and inhibitors were added 2.5 h prior to EGF or HRG treatment.
(§2) Lysates from subconfluent cells were immunoblotted with anti-MUC1-C(AbS; Neomarkers), anti-β-actin (Sigma), anti-p-AKT, anti-AKT, anti-p-ERK1/2, anti-ERK1/2, anti-p-S6K1, anti-S6K1, anti-PCDC4, anti-eIF4E, eIF4A (Cell Signaling Technology) and anti-EGFR (Santa Cruz Technology) Immune complexes were detected with horseradish peroxidase-conjugated secondary antibodies and enhanced chemiluminescence (Amersham Biosciences). Intensity of certain signals was determined by densitometric scanning.

[2] = cited from earlier work
[3] = system: mitogen-activated protein kinase kinase (MEK); conditions: background statement; cited from earlier work
MUC1-C [4] = assay: Immunoblot of MUC1-C in MCF-7 breast cancer cells; assay type: cell-based, Human; conditions: MCF-7 cells; for MUC1-C abundance: 100 nM
Method: as §1, §2

MUC1-C [5] = assay: Immunoblot of MUC1-C in MDA-MB-468 breast cancer cells; assay type: cell-based, Human; conditions: MDA-MB-468 cells, 10 and 100 nM
Method: as §1, §2

PDCD4 = assay: Immunoblot of PDCD4 in MCF-10A cells; assay type: cell-based, Human; conditions: 100 nM silvestrol
Method: as §1, §2

β-actin = β-actin abundance in growth factor-stimulated MCF-10A cells; assay type: cell-based, Human
Method: as §2

eIF4A RNA helicase = conditions: literature; cited from earlier work
cyclin D1, MYC and MCL1 = conditions: literature; cited from earlier work
cancer cells [6] = conditions: literature; cited from earlier work
cancer cells [7] = conditions: literature, preclinical studies, cited from earlier work
MUC1-C [8] = assay: Immunoblot of MUC1-C in BT-549 breast cancer cells; assay type: cell-based, Human; conditions: BT-549 cells, 100 nM, data not shown
Method: as §1, §2

MCF-10A cells = assay: EGF-stimulated MCF-10A cell growth, viable cell number by trypan blue exclusion; assay type: cell-based, Human; conditions: 100 nM, 24 h with EGF, reseeded, counted at 48 h
Text: FIGS. 6A-D. MUC1-C translation is inhibited by CR-1-31-B in MCF-10A cells. (FIG. 6A) Structures of the indicated compounds.

MUC1 gene promoter = assay: MUC1 promoter luciferase assay in MCF-10A cells; assay type: cell-based, Human; conditions: pMUC1-Luc, EGF 100 ng/ml 5 h
Method: Control pGL3 or pGL3-MUC1-promoter constructs were transfected with the Renilla plasmid into cells in the presence of Lipofectamine. At 24 h after transfection, cells were serum-starved overnight, and then treated with EGF (100 ng/ml) for 5 h. Luciferase reporter activity was measured using the Promega Dual Glo kit.

MUC1 mRNA = MUC1 mRNA by qRT-PCR in MCF-10A cells; assay type: cell-based, Human; conditions: EGF stimulation
Method: Total RNA was isolated from cells using an RNeasy Mini kit (Qiagen). cDNAs were synthesized with 0.3-1 μg RNA using the first-strand cDNA synthesis kit (Invitrogen). The SYBR green qPCR assay kit (Applied Biosystems) was used with 5 μl of 20-fold diluted cDNA from each sample, and the samples were amplified with the ABI Prism 7300 machine (Applied Biosystems).

[9] = MCF-10A cells + EGF, CHX 10 ng/ml, U0126 10 μM, LY294002 50 μM, BEZ235 250 or 500 nM, rapamycin 100 nM, silvestrol, CR-1-31-B, CR-1-30-B indicated concentrations 24 h

Chain of CYP2C9 (P11712 whole entry): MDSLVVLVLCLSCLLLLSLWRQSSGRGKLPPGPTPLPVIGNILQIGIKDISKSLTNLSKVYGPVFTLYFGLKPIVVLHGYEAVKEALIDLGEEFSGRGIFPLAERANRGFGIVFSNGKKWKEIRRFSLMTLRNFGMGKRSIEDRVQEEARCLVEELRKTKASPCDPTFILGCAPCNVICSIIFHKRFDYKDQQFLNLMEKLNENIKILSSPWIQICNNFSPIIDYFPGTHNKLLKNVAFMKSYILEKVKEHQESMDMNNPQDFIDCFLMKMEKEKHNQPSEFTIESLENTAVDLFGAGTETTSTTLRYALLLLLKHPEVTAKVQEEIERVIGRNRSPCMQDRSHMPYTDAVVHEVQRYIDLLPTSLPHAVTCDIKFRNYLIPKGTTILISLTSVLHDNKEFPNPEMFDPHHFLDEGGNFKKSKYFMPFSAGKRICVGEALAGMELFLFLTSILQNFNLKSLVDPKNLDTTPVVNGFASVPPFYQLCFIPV

O=c1cc(-c2ccc(O)cc2)oc2cc(O)cc(O)c12 [Apigenin, 4′,5,7-trihydroxyflavone]
inhibition of CYP2C9 (CYP2C9): potent inhibitor

Cn1c(=O)n(-c2ccc(C(C)(C)C#N)cc2)c2c3cc(-c4cnc5ccccc5c4)ccc3ncc21 [BEZ235]
EGF-induced increase in MUC1-C abundance (MUC1-C [1]; [9]): blocked

O=c1c(O)c(-c2ccc(O)cc2)oc2cc(O)cc(O)c12 [Kaempferol]
solubility in water [2]: slightly soluble

COc1cccc(-c2cc(=O)c3ccccc3o2)c1N [PD98059, 2-(2′-amino-3′-methoxyphenyl)-oxanaphthalen-4-one]
inhibition of MEK [3]: potent inhibitor

N#CC(=C(/N)Sc1ccccc1N)/C(C#N)=C(\N)Sc1ccccc1N [U0126]
EGF-induced increase in MUC1-C abundance (MUC1-C [1]): not ERK1/2, blocked

C[C@@H]1C[C@@H]([C@H](O)CC2CC(=O)NC(=O)C2)C(=O)[C@@H](C)C1 [cycloheximide]
EGF-induced increase in MUC1-C abundance (MUC1-C [1]; [9]): blocked

COC(=O)[C@H]1[C@@H](O)[C@@]2(O)c3c(OC)cc(O[C@@H]4O[C@@H]([C@H](O)CO)CO[C@H]4OC)cc3O[C@@]2(c2ccc(OC)cc2)[C@@H]1c1ccccc1 [silvestrol]
EGF-induced increase in MUC1-C abundance (MUC1-C [1]; [9]): blocked
HRG-induced increase in MUC1-C abundance (MUC1-C [1]; 24 h): dose-dependent inhibitory effects
EGF- and HRG-induced MUC1-C translation (MUC1-C [1]; MCF-10A cells): substantially blocked
MUC1-C levels (MUC1-C [4]; 10 nM): limited effect
MUC1-C abundance (MUC1-C [4]): more pronounced decrease
MUC1-C abundance (MUC1-C [5]): clearly detectable
PDCD4 abundance (PDCD4): marked decrease
abundance of β-actin (β-actin): little effect
activity against eIF4A RNA helicase (eIF4A RNA helicase): potent inhibitor
production of cyclin D1, MYC and MCL1 (cyclin D1, MYC and MCL1): decreases
activity against cancer cells growing in vitro (cancer cells [6]): active
anti-tumor activity in animal models (cancer cells [7]): promising anti-tumor activity
toxicity in animal models (cancer cells [7]): little toxicity
anti-tumor activity in animal models (cancer cells [7]; listed as Silvestrol): active

CR-1-31-B
EGF-induced increase in MUC1-C abundance (MUC1-C [1]; [9]): dose-dependent decrease
HRG-induced increase in MUC1-C abundance (MUC1-C [1]; 24 h): blocked
EGF- and HRG-induced MUC1-C translation (MUC1-C [1]; MCF-10A cells): similarly blocks
MUC1-C abundance (MUC1-C [4]): downregulation
MUC1-C expression (MUC1-C [8]): decreases
MUC1-C abundance (MUC1-C [5]): decreases
growth of MCF-10A cells in response to EGF (MCF-10A cells): attenuated

EGF: growth factor (Sigma) stimulating EGFR
increase in MUC1-C expression compared to baseline levels (MUC1-C [1]; MCF-10A cells, growth factor stimulation (EGF 100 ng/ml, HRG 10 ng/ml), 24 h): 65 fold
effect of growth factor stimulation on MUC1-C levels (MUC1-C [4]; EGF 100 ng/ml, HRG data not shown): no apparent effect
activation of the MUC1 gene promoter (MUC1 gene promoter): no significant effect
MUC1 mRNA levels (MUC1 mRNA): no apparent effect
